Results taken from PMC10504751, “Chalcone/1,3,4-Oxadiazole/Benzimidazole hybrids as novel anti-proliferative agents inducing apoptosis and inhibiting EGFR & BRAFV^600E” (BMC Chemistry, 2023).

Columns and labels:
EGFR = target: T1, EGFR (Homo sapiens, UniProt P00533); experiment: EGFR-TK inhibitory assay; type: biochemical; settings: read-out: EGFR Inhibition IC50 ± SEM
T1 construct: EGFR cytoplasmic domain (EGFR-CD, amino acids 645–1186); His6 (N); made in house; host or cells: Sf-9 insect cells (baculovirus; pBlueBacHis2B / pFASTBacHTc)

BRAF^V600E = experiment: biochemical
Description: To further denature the protein, heat (70° C) was applied for 5 min. […] 10 µL of each reaction was loaded into the precast plates and electrophoresis was allowed to proceed. After completion of electrophoresis, the front part of the precast gel plate (holding hot ATP) was cut and afterwards cast-off. The dried gel was developed using a phosphor screen.

[1] = MTT cell viability assay in normal cells; type: cell-based; settings: human, MCF-10A normal mammary epithelial cells
Description: To check the safety of prepared compounds and evaluate their selectivity towards tumor cells over normal ones, the toxicity of compounds 7a-x were evaluated by 3-(4,5-Dimethylthiazole-2-yl)-2,5-diphenyltetrazol (MTT) assay on the normal human mammary epithelial cell line (MCF-10 A). The human mammary epithelial cell lines were incubated for four days with a concentration of 50 µM of compounds 7a-x.
MTT assay was done to determine the effect of the synthesized compounds on the viability of mammary epithelial cells (MCF-10 A). Compounds 7a-x were incubated with MCF-10 A cells for 4 days at 50 µM concentration, and the viability of cells was determined. See Appendix A.
MTT assay was carried out to study the effect of compounds on mammary epithelial cells (MCF-10A).^7, ^8 The medium in which cells were propagated contained Dulbecco's modified Eagle's medium (DMEM)/ Ham's F-12 medium (1:1) supplemented with epidermal growth factor (20 ng/mL), hydrocortisone (500 ng/mL), insulin (10 μg/mL), 2 mM glutamine and 10% foetal calf serum. After every 2-3 days, the cells were passaged using trypsin ethylenediamine tetra acetic acid (EDTA). The cells were seeded at a density of 10^4 cells mL^-1 in flat-bottomed culture plates containing 96 wells each. After 24 h, medium was removed from the plates and the compounds in (in 0.1% DMSO) were added (in 200 μL medium to yield a final concentration of 0.1% v/v) to the wells of plates. A single compound was designated with four wells followed by incubation of plates for 96h at 37°C. After incubation, medium was removed completely from the plates followed by addition of MTT (0.4 mg/mL in medium) to each well and subsequent incubation of plates for 3h. MTT (along with the medium) was removed and DMSO (150μL) was added to each well of the culture plates, followed by vortexing and subsequent measurement of absorbance (at 540 nm) using microplate reader.

Panc-1 = experiment: Propidium iodide anti-proliferative assay; type: cell-based; settings: Homo sapiens, 48 h incubation, read-out: IC50 ± SEM Panc-1
Description: (§1) The propidium iodide (PI) tests^31, 32 were further used for assessment of the IC50 of all synthesized compounds and compared to Doxorubicin as a positive control against four cancer cell lines; pancreatic cancer cell line (Panc-1), epithelial line cancer cell (A-549), breast cancer cell line (MCF-7), and colon cancer cell line (HT-29).
(§2) Using the propidium iodide fluorescence assay with doxorubicin as the reference drug, IC50 of the 24 compounds 7a-x, was carried out according to a previously reported procedure^31, 32 against a panel of four human cancer cell lines; epithelial cancer cell line (A-549), breast cancer cell line (MCF-7), colon cancer cell line (HT-29) and pancreas cancer cell line (Panc-1). Compounds 7a-x were incubated with cancer cells for 2 days at different concentrations. See Appendix A.
(§3) To explore the antiproliferative potential of compounds propidium iodide fluorescence assay was performed using different cell lines (melanoma cancer cell line LOX-IMVI, pancreatic cancer cell line (Panc-1), epithelial line cancer cell (A-549), breast cancer cell line (MCF-7), and colon cancer cell line (HT-29). To calculate the total nuclear DNA, a fluorescent dye (propidium iodide, PI) is used which can attach to the DNA,^9,^10 thus offering a quick and precise technique. PI cannot pass through the cell membrane and its signal intensity can be considered as directly proportional to the quantity of cellular DNA. Cells whose cell membranes are damaged or have changed permeability are counted as dead ones. The assay was performed by seeding the cells of different cancer cell lines at a density of 3000-7500 cells/well (in 200µl medium) in culture plates followed by incubation for 24h at 37 °C in humidified 5% CO2/95% air atmospheric conditions. The medium was removed; the compounds were added to the plates at 10 µM concentrations (in 0.1% DMSO) in triplicates, followed by incubation for 48 h. DMSO (0.1%) was used as control. After incubation, medium was removed followed by the addition of PI (25 µl, 50µg/mL in water/medium) to each well of the plates. At -80 °C, the plates were allowed to freeze for 24 h, followed by thawing at 25 °C. A fluorometer (Polar-Star BMG Tech) was used to record the readings at excitation and emission wavelengths of 530 and 620 nm for each well. The percentage cytotoxicity of compounds was calculated using the following formula:
(§4) Where ATC= Absorbance of treated cells and AC= Absorbance of control. […]

A-549 = experiment: Propidium iodide anti-proliferative assay; type: cell-based; settings: Homo sapiens, A549; 48 h incubation; read-out: IC50 ± SEM A-549
Description: as §1, §2, §3, §4

MCF-7 = experiment: Propidium iodide anti-proliferative assay; type: cell-based; settings: Homo sapiens, MCF7; 48 h incubation; read-out: IC50 ± SEM MCF-7
Description: as §1, §2, §3, §4

HT-29 = experiment: Propidium iodide anti-proliferative assay; type: cell-based; settings: Homo sapiens, 48 h incubation, read-out: IC50 ± SEM HT-29
Description: as §1, §2, §3, §4

Sequence of BRAF^V600E (P28028 whole entry V585E): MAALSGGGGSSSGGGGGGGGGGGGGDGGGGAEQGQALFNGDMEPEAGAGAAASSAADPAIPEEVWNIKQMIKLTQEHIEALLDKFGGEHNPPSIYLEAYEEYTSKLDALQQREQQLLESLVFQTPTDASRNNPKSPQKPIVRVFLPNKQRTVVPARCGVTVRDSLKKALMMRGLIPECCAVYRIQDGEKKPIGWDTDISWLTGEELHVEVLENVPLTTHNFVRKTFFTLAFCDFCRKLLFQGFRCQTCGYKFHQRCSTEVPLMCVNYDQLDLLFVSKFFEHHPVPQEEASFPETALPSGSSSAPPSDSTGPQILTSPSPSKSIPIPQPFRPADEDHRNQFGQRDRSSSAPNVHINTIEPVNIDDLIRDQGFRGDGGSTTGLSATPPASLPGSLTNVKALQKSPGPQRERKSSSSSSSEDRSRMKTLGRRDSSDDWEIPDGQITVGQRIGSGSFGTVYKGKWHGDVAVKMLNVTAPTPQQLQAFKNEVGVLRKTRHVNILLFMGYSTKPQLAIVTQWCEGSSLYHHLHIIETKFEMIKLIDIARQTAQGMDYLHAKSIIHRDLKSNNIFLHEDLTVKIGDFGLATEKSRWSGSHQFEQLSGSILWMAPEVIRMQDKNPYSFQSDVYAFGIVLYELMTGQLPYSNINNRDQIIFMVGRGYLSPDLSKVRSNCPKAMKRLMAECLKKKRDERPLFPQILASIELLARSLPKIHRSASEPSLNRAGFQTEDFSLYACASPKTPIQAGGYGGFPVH
T1 sequence (P00533 669-1210): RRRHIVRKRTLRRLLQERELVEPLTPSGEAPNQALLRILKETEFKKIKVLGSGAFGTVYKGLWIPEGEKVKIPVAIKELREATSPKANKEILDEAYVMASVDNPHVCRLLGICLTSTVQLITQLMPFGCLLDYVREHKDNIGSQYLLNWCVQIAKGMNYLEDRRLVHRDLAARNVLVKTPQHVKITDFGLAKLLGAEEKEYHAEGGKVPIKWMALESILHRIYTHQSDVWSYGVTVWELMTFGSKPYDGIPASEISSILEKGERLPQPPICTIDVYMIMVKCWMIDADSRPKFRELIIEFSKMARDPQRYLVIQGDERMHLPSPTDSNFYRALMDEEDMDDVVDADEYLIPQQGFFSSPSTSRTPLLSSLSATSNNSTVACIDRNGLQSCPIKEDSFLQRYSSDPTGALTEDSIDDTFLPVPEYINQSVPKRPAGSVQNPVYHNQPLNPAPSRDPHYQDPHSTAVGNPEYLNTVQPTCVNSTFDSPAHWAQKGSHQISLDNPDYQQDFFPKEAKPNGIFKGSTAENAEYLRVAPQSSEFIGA

`COc1ccc(-c2nc3cc(-c4nnc(SCC(=O)Nc5ccc(C(=O)/C=C/c6ccc(OC)c(OC)c6)cc5)o4)ccc3[nH]2)cc1` [Compound 7n, 2-{5-[2-(4-Methoxyphenyl)-1 H-benzo[d]imidazol-5-yl]-1,3,4-oxadiazol-2-ylthio}-N-{4-[(E)-3-(3,4-dimethoxyphenyl)acryloyl]phenyl}acetamide] gave an IC50 (EGFR) of 1400 ± 200 nM, an IC50 (BRAF^V600E) of 3700 ± 200 nM and a viability at 96 h, 50 µM [1] of 92%. It also gave an IC50 (Panc-1) of 2050 ± 500 nM, an IC50 (A-549) of 1900 ± 600 nM and an IC50 (MCF-7) of 1650 ± 300 nM. The IC50 (HT-29) was 2200 ± 600 nM and the melting point was 222 to 224 °C.
`COc1ccc(-c2nc3cc(-c4nnc(SCC(=O)Nc5ccc(C(=O)/C=C/c6cc(OC)c(OC)c(OC)c6)cc5)o4)ccc3[nH]2)cc1` [Compound 7o, 2-{5-[2-(4-Methoxyphenyl)-1 H-benzo[d]imidazol-5-yl]-1,3,4-oxadiazol-2-ylthio}-N-{4-[(E)-3-(3,4,5-trimethoxyphenyl)acryloyl]phenyl}acetamide] showed a viability at 96 h, 50 µM [1] of 89%, an IC50 (Panc-1) of 8200 ± 1200 nM and an IC50 (A-549) of 7600 ± 300 nM. It also gave an IC50 (MCF-7) of 7100 ± 600 nM, an IC50 (HT-29) of 8600 ± 400 nM and a melting point of 154 to 156 °C.
Work on `O=C(CSc1nnc(-c2ccc3[nH]c(-c4ccc(Cl)cc4)nc3c2)o1)Nc1ccc(C(=O)/C=C/c2ccccc2)cc1` [Compound 7f, 2-{5-[2-(4-Chlorophenyl)-1 H-benzo[d]imidazol-5-yl]-1,3,4-oxadiazol-2-ylthio}-N-{4-[(E)-3-phenylacryloyl]phenyl}acetamide] yielded a viability at 96 h, 50 µM [1] of 87%, an IC50 (Panc-1) of 2400 ± 600 nM and an IC50 (A-549) of 2150 ± 500 nM. The IC50 (MCF-7) was 2050 ± 500 nM, the IC50 (HT-29) was 2700 ± 500 nM and the melting point was 161 to 163 °C.
`O=C(CSc1nnc(-c2ccc3[nH]c(-c4ccccc4)nc3c2)o1)Nc1ccc(C(=O)/C=C/c2ccc(Cl)cc2)cc1` [Compound 7b, 2-{5-[2-Phenyl-1 H-benzo[d]imidazol-5-yl]-1,3,4-oxadiazol-2-ylthio}-N-{4-[(E)-3-(4-chlorophenyl)acryloyl]phenyl}acetamide] showed a viability at 96 h, 50 µM [1] of 88%, an IC50 (Panc-1) of 8400 ± 1000 nM and an IC50 (A-549) of 8200 ± 900 nM. The IC50 (MCF-7) was 7900 ± 800 nM, the IC50 (HT-29) was 9100 ± 1100 nM and the melting point was 263 to 264 °C.
In the case of `COc1ccc(/C=C/C(=O)c2ccc(NC(=O)CSc3nnc(-c4ccc5[nH]c(-c6ccc(Cl)cc6)nc5c4)o3)cc2)cc1` [Compound 7h, 2-{5-[2-(4-Chlorophenyl)-1 H-benzo[d]imidazol-5-yl]-1,3,4-oxadiazol-2-ylthio}-N-{4-[(E)-3-(4-methoxyphenyl)acryloyl]phenyl}acetamide], the IC50 (EGFR) is reported as 2300 ± 200 nM, the IC50 (BRAF^V600E) is reported as 2700 ± 300 nM and the viability at 96 h, 50 µM [1] is reported as 87%. The IC50 (Panc-1) was 2050 ± 500 nM, the IC50 (A-549) was 1950 ± 600 nM and the IC50 (MCF-7) was 1750 ± 400 nM. The IC50 (HT-29) was 2250 ± 600 nM and the melting point was 228 to 230 °C.
Work on `COc1cc(-c2nc3cc(-c4nnc(SCC(=O)Nc5ccc(C(=O)/C=C/c6ccccc6)cc5)o4)ccc3[nH]2)cc(OC)c1OC` [Compound 7u, 2-{5-[2-(3,4,5-Trimethoxyphenyl)-1 H-benzo[d]imidazol-5-yl]-1,3,4-oxadiazol-2-ylthio}-N-{4-[(E)-3-phenylacryloyl]phenyl}acetamide] yielded a viability at 96 h, 50 µM [1] of 90%, an IC50 (Panc-1) of 2400 ± 200 nM and an IC50 (A-549) of 2250 ± 500 nM. It also gave an IC50 (MCF-7) of 2100 ± 80 nM, an IC50 (HT-29) of 2700 ± 500 nM and a melting point of 188 to 190 °C.
For `COc1cc(/C=C/C(=O)c2ccc(NC(=O)CSc3nnc(-c4ccc5[nH]c(-c6ccccc6)nc5c4)o3)cc2)cc(OC)c1OC` [Compound 7e, 2-{5-[2-Phenyl-1 H-benzo[d]imidazol-5-yl]-1,3,4-oxadiazol-2-ylthio}-N-{4-[(E)-3-(3,4,5-trimethoxyphenyl)acryloyl]phenyl}acetamide], the IC50 (EGFR) was 1150 ± 200 nM, the IC50 (BRAF^V600E) was 900 ± 100 nM and the viability at 96 h, 50 µM [1] was 87%. The IC50 (Panc-1) was 1700 ± 300 nM, the IC50 (A-549) was 1600 ± 300 nM and the IC50 (MCF-7) was 1250 ± 80 nM. The IC50 (HT-29) was 1950 ± 300 nM and the melting point was 143 to 144 °C.
Work on `COc1ccc(/C=C/C(=O)c2ccc(NC(=O)CSc3nnc(-c4ccc5[nH]c(-c6ccccc6)nc5c4)o3)cc2)cc1OC` [Compound 7d, 2-{5-[2-Phenyl-1 H-benzo[d]imidazol-5-yl]-1,3,4-oxadiazol-2-ylthio}-N-{4-[(E)-3-(3,4-dimethoxyphenyl)acryloyl]phenyl}acetamide] yielded a viability at 96 h, 50 µM [1] of 89%, an IC50 (Panc-1) of 10300 ± 1300 nM and an IC50 (A-549) of 9700 ± 1100 nM. It also gave an IC50 (MCF-7) of 8900 ± 1100 nM, an IC50 (HT-29) of 11100 ± 1400 nM and a melting point of 156 to 158 °C.
For `COc1ccc(/C=C/C(=O)c2ccc(NC(=O)CSc3nnc(-c4ccc5[nH]c(-c6ccc(OC)c(OC)c6)nc5c4)o3)cc2)cc1` [Compound 7r, 2-{5-[2-(3,4-Dimethoxyphenyl)-1 H-benzo[d]imidazol-5-yl]-1,3,4-oxadiazol-2-ylthio}-N-{4-[(E)-3-(4-methoxyphenyl)acryloyl]phenyl}acetamide], the viability at 96 h, 50 µM [1] was 91%, the IC50 (Panc-1) was 3900 ± 500 nM and the IC50 (A-549) was 3600 ± 500 nM. The IC50 (MCF-7) was 3100 ± 500 nM, the IC50 (HT-29) was 4200 ± 500 nM and the melting point was 170 to 171 °C.
`COc1ccc(/C=C/C(=O)c2ccc(NC(=O)CSc3nnc(-c4ccc5[nH]c(-c6ccccc6)nc5c4)o3)cc2)cc1` [Compound 7c, 2-{5-[2-Phenyl-1 H-benzo[d]imidazol-5-yl]-1,3,4-oxadiazol-2-ylthio}-N-{4-[(E)-3-(4-methoxyphenyl)acryloyl]phenyl}acetamide] gave a viability at 96 h, 50 µM [1] of 87%, an IC50 (Panc-1) of 5200 ± 400 nM and an IC50 (A-549) of 4700 ± 500 nM. It also gave an IC50 (MCF-7) of 4150 ± 500 nM, an IC50 (HT-29) of 5500 ± 500 nM and a melting point of 175 to 177 °C.
With `O=C(CSc1nnc(-c2ccc3[nH]c(-c4ccccc4)nc3c2)o1)Nc1ccc(C(=O)/C=C/c2ccccc2)cc1` [Compound 7a, 2-{5-[2-Phenyl-1 H-benzo[d]imidazol-5-yl]-1,3,4-oxadiazol-2-ylthio}-N-{4-[(E)-3-phenylacryloyl]phenyl}acetamide] the viability at 96 h, 50 µM [1] was 91%, the IC50 (Panc-1) was 10400 ± 1300 nM and the IC50 (A-549) was 9900 ± 1100 nM. For the same compound, the IC50 (MCF-7) was 9200 ± 1100 nM, the IC50 (HT-29) was 11200 ± 1400 nM and the melting point was 273 to 275 °C.
